Reference: ChEMBL document CHEMBL1145232, “Synthesis of the naphthalene-derived inhibitors against Cdc25A dual-specificity protein phosphatase and their biological activity” (Bioorg Med Chem Lett, 2005)
In brackets after ≈: the same amount, converted by molar mass.

Assay: In vitro inhibitory concentration against Cdc25A protein phosphatase

SMILES | IC50
CCCCCC(O)c1c(C/C=C/CO)cc2c(c1OC)C(=O)C=C(NC)C2=O (stereo unspecified) | > 10 µg/mL
COC1=CC(=O)c2c(cc(C/C=C/CO)c(C(O)c3ccccc3)c2OC)C1=O (stereo unspecified) | 2.74 µg/mL (≈ 6.95 µM)
CCC(O)c1c(C/C=C/CO)cc2c(c1OC)C(=O)C=C(NC)C2=O (stereo unspecified) | > 10 µg/mL
CCCCC(O)c1c(C/C=C/CO)cc2c(c1O)C(O)=C/C(=N\C)C2=O (stereo unspecified) | > 10 µg/mL
CCCCC(O)c1c(C/C=C/CO)cc2c(c1OC)C(=O)C=C(OC)C2=O (stereo unspecified) | 1.77 µg/mL (≈ 4.73 µM)
CNC1=CC(=O)c2c(OC)cc(COC)cc2C1=O | > 10 µg/mL
COC1=CC(=O)c2c(OC)cc(OC)cc2C1=O | 0.4 µg/mL (≈ 1.61 µM)
CCCC[C@H]1O[C@@H](CC(=O)O)Cc2cc3c(c(O)c21)C(=O)C=C(NC)C3=O (racemic) | >= 10 ug ml-1

Further lines, results first:

IC50 | SMILES
> 10 µg/mL | CNC1=CC(=O)c2c(OC)cc(C[C@@H]3CCOC(C)(C)O3)cc2C1=O
> 10 µg/mL | CCCCC(O)c1c(C/C=C/CO)cc2c(OC)c(OC)cc(OCc3ccccc3)c2c1OC (stereo unspecified)
1.86 µg/mL (≈ 5.37 µM) | CCC(O)c1c(C/C=C/CO)cc2c(c1OC)C(=O)C=C(OC)C2=O (stereo unspecified)
1.51 µg/mL (≈ 4.19 µM) | CCCCC(O)c1c(C/C=C/CO)cc2c(c1O)C(=O)C=C(OC)C2=O (stereo unspecified)
1.6 µg/mL (≈ 4.12 µM) | CCCCCC(O)c1c(C/C=C/CO)cc2c(c1OC)C(=O)C=C(OC)C2=O (stereo unspecified)
0.4 µg/mL (≈ 1.15 µM) | COC1=CC(=O)c2c(OC)cc(C[C@@H]3CCOC(C)(C)O3)cc2C1=O
> 10 µg/mL | COc1cc(OCc2ccccc2)c2c(OC)cc(C[C@@H]3CCOC(C)(C)O3)cc2c1OC
> 10 µg/mL | CNC1=CC(=O)c2c(cc(C/C=C/CO)c(C(O)c3ccccc3)c2OC)C1=O (stereo unspecified)
